Results on 4 molecules are retold here after US9951050B2, “Method of inhibiting DYRK1B” (4SC Discovery GmbH, priority 2013, dated 2018).

The structures appear in SMILES notation. Entries after “also recorded” stand apart in the source; their conditions may differ.

For assay [1], the system named is tumor-initiating L3.6pl pancreatic cancer cells. As to the kind of experiment: Anchorage-independent 3D culture clonal growth (tumorsphere) assay, L3.6pl. Type of assay: cell-based. Particulars: anchorage-independent 3D cultures.
For assay [2], the system named is Hedgehog signaling pathway (GLI1, GLI2, PTCH1 expression) in DAOY cells. Description: Western blot / qPCR of Hedgehog target genes in SAG-stimulated DAOY medulloblastoma cells. Type of assay: cell-based, human. Particulars: for HH signaling / GLI target gene activation: SAG stimulated DAOY cells, Harmine 10 or 25 μM, Cpd P 1 or 5 μM; for GLI1 protein expression: Western blot. The method, then:
(§1) DAOY cells (ATCC) were grown in MEM media (PAA Laboratories, Germany) supplemented with 10% fetal bovine serum (FBS) (PAA Laboratories, Germany), penicillin (62.5 μg/ml) and streptomycin ([…]) at 37° C. in an atmosphere containing 5% CO2. BSZ2 cells (So et al., 2006) were grown in 154-CF media (Life Technologies, UK) supplemented with 2% heat inactivated (56° C. for 30 minutes) and chelexed fetal bovine serum (FBS) (PAA Laboratories, Germany) (FBS was chelexed by adding to 50 mL FBS 10 g Chelex 100 (Bio-Rad Laboratories GmbH, Germany) followed by stirring for 60 min at RT; chelexed FBS was sterile filtered prior to use), penicillin (62.5 μg/ml) and streptomycin ([…]) at 37° C. in an atmosphere containing 5% CO2. Panc-1 and A673 cells (ATCC) were grown in DMEM media (PAA Laboratories, Germany) supplemented with 10% fetal bovine serum (FBS) (PAA Laboratories, Germany), penicillin (62.5 μg/ml) and streptomycin ([…]) at 37° C. in an atmosphere containing 5% CO2. For 3-dimensional (3D) cultures, 5×10^3 cells were seeded in 12-well plates in 0.4% select agar on top of 0.5% bottom select agar (Life Technologies, Germany) according to standard protocols of anchorage independent growth assays (Eberl et al., 2012). 3D cultures were grown for 4-6 weeks at 37° C. in a humidified atmosphere containing 5% CO2. Colony formation was documented on a stereomicroscope with Cell^D Image capture system (Olympus) and quantified using Colony Counter Software (Microtec Nition, Japan). SAG (smoothened agonist, N-Methyl-N′-(3-pyridinylbenzyl)-N′-(3-chlorobenzo[b]thiophene-2-carbonyl)-1,4-diaminocyclohexane) (Axxora LCC), Harmine (Fisher Scientific), GDC-0449 (LC Laboratories), GANT61 (Merck Chemicals Ltd.) and 4SC Compound P (4SC Discovery GmbH, Germany) were dissolved in DMSO. The final DMSO concentration in all wild-type DAOY samples was 0.2%, in all other cell line experiments including DAOY shSUFU cells 0.1%.
Total RNA was isolated using TRI-reagent (Molecular Research Center Inc.) followed by LiCl purification step. For this purpose, total RNA was dissolved in 100 mM Hepes pH 7.4/6M Urea and selectively precipitated by adding LiCl to a final concentration of 3M and incubating for 2 h at −20° C. Precipitated and purified RNA was used for cDNA synthesis using Superscript II reverse transcriptase (Life Technologies, Germany) according to the manufacturer's instructions. qPCR was done on a Rotorgene3000 (Qiagen, Germany) using iQ Sybr Green Supermix reagent (Bio-Rad Laboratories, UK). For qPCR analysis the following primer pairs (Microsynth AG, Switzerland) were used:
For Western blot analysis, cells were lysed in Laemmli buffer supplemented with PhosStop (Roche, Germany) and cOmplete EDTA-free Protease Inhibitor Cocktail (Roche, Germany). Proteins were visualized with horseradish peroxidase-conjugated secondary antibodies in combination with enhanced chemiluminescence detection system (GE Health Care, USA).
To address the effect of selected gene perturbations on canonical endogenous Hedgehog signaling in a human cancer cell line, the human medulloblastoma cell line (DAOY, ATCC ident. HTB-186) showing full responsiveness to Hedgehog activation by Smoothened agonist (SAG) as evidenced by activation of the direct Hedgehog target gene GLI1, a reliable and robust indicator of Hedgehog signaling pathway activity (FIG. 1) (Chen et al., 2002).
SAG stimulated DAOY cells were treated with Harmine (7-MeO-1-Me-9H-pyrido[3,4-b]-indole) (dissolved at room temperature as 25 mM stock solution in DMSO and used at final concentration of 10 μM or 25 μM), a naturally occurring DYRK1 inhibitor, as well as with Compound P (Cpd P, dissolved at room temperature in DMSO as 20 mM stock solution and used at final concentration of 1 μM or 5 μM, respectively), a small molecule inhibitor of DYRK1, which is structurally unrelated to Harmine.

Assay [3] relates to tumor-initiating PANC1 pancreatic cancer cells. Description: Anchorage-independent 3D culture clonal growth (tumorsphere) assay, PANC1. Type of assay: cell-based, human. Particulars: PANC1, anchorage-independent 3D cultures. Here is the method: (§2) DAOY cells (ATCC) were grown in MEM media (PAA Laboratories, Germany) supplemented with 10% fetal bovine serum (FBS) (PAA Laboratories, Germany), penicillin (62.5 μg/ml) and streptomycin ([…]) at 37° C. in an atmosphere containing 5% CO2. BSZ2 cells (So et al., 2006) were grown in 154-CF media (Life Technologies, UK) supplemented with 2% heat inactivated (56° C. for 30 minutes) and chelexed fetal bovine serum (FBS) (PAA Laboratories, Germany) (FBS was chelexed by adding to 50 mL FBS 10 g Chelex 100 (Bio-Rad Laboratories GmbH, Germany) followed by stirring for 60 min at RT; chelexed FBS was sterile filtered prior to use), penicillin (62.5 μg/ml) and streptomycin ([…]) at 37° C. in an atmosphere containing 5% CO2. Panc-1 and A673 cells (ATCC) were grown in DMEM media (PAA Laboratories, Germany) supplemented with 10% fetal bovine serum (FBS) (PAA Laboratories, Germany), penicillin (62.5 μg/ml) and streptomycin ([…]) at 37° C. in an atmosphere containing 5% CO2. […] Colony formation was documented on a stereomicroscope with Cell^D Image capture system (Olympus) and quantified using Colony Counter Software (Microtec Nition, Japan). […]

The subject of assay [4] is GLI1 protein expression in PANC1 cells. Description: Western blot of PANC1 pancreatic cancer cells. Particulars: for GLI1 protein expression: GDC-0449 0.5 μM. Format: cell-based, human. Here is the method: as §1, with “0.1%. […]” for “0.1%.”
(§3) The function of DYRK1 isoforms in SMO-independent/GLI-dependent pancreatic cancer and Ewing's sarcoma (EWS) cell lines PANC1 and A673, respectively, was analyzed. […]

The subject of assay [5] is GLI1 protein expression in A673 cells. Description: Western blot of Ewing sarcoma cell line A673. Type of assay: cell-based, human. Particulars: for GLI1 protein expression: GDC-0449 0.5 μM. Here is the method: as §1, with “0.1%. […]” for “0.1%.”
as §3

Assay [6] relates to GLI1 expression in BSZ2 cells. As to the kind of experiment: Western blot of GLI1 in Ptch-/- BCC cells (BSZ2). Format: cell-based. Particulars: mouse Ptch-/- BCC cells (BSZ2). Here is the method: as §2
Assay [7] relates to GLI1 and PTCH1 expression in DAOY shSUFU cells. As to the kind of experiment: Western blot / qPCR in SUFU knockdown (shSUFU) DAOY cells, SMO-independent GLI activation. Format: cell-based, human. Particulars: for PTCH1 mRNA expression: qPCR. Here is the method: as §1
In the examples of the present invention, RNAi knockdown experiments were facilitated by lentiviral RNAi production and transductions, which were carried out as described in Kasper et al, 2007, which is incorporated herein by reference (Kasper et al., 2007). The following shRNA constructs (Sigma Aldrich mission TRC library) were used and the following abbreviations are used herein: shRNA DYRK1A (TRCN0000000526), shRNA DYRK1B-1 (TRCN0000002139), shRNA DYRK1B-2 (TRCN0000355722), shSUFU (TRCN0000019466) and control scrambled shRNA (SHC002). […] Transduced cells were selected for puromycin resistance prior to further analysis.
Total RNA was isolated using TRI-reagent (Molecular Research Center Inc.) followed by LiCl purification step. […]

The target of a further assay is T1, DYRK1B (Homo sapiens, UniProt Q9Y463).
T1 construct: full-; Insect; N-terminal; length; GST; GST (N); purchased Reaction Biology Corp; host or cells: Insect
T1 sequence (Q9Y463 whole entry): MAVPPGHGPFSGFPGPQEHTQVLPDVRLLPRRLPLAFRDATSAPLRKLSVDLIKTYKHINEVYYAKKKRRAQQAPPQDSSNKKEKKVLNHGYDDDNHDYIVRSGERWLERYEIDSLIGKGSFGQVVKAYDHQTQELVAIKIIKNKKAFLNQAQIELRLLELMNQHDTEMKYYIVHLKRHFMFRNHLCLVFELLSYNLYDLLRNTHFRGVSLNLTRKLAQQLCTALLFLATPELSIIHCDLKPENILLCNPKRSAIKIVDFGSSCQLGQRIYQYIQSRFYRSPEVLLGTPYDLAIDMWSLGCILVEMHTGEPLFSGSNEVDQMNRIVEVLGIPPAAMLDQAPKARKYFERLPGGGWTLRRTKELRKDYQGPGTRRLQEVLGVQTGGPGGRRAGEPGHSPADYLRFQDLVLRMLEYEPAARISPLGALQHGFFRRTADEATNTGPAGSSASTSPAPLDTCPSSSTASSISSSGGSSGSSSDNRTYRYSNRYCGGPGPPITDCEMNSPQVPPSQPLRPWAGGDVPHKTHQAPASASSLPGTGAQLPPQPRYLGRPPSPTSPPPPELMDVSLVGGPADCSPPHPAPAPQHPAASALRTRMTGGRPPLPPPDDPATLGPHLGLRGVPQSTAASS
Description: In vitro DYRK1B kinase assay (33P-ATP, DYRKtide substrate, Reaction Biology Corp.). Format: biochemical. Particulars: 10 μM ATP, 20 μM DYRKtide. The method, then:
(§4) The assay was carried out by Reaction Biology Corp., Malverne, Pa., USA according to specifications by Reaction Biology Corp., as detailed herein below and further described in Anastassiadis et al., Nature Biotechnology, 29 (2011) 1039-1045.
(§5) DYRK1A: The substrate DYRKtide (synthetic peptide […]) (SEQ ID NO: 5) was dissolved in freshly prepared Base Reaction Buffer (20 mM Hepes (pH 7.5), 10 mM MgCl2, 1 mM EGTA, 0.02% Brij35, 0.02 mg/ml BSA, 0.1 mM Na3VO4, 2 mM DTT, 1% DMSO) at a concentration of 20 μM. DYRK1A was added to the substrate solution in a concentration of 0.3 nM and gently mixed. Compound dilution series in DMSO were added to the reaction, followed 20 min later by addition of a mixture of ATP and ^33P ATP (0.01 μCi/μl final) to a final concentration of 10 μM. Reactions proceeded at 25° C. for 120 min, followed by spotting onto P81 ion exchange filter paper. Unbound phosphate was removed by extensive washing of the filters in 0.75% phosphoric acid. […] IC50 values and curve fits were obtained using Prism (Graph Pad Software).
The assay for DYRK1B was carried out as described above for DYRK1A, with the exception that instead of DYRK1A, DYRK1B was added to the substrate solution and gently mixed.
(§6) DYRK1A and DYRK1B used in the above assays are further described in the below table: […]

The next assay has as its target T2, DYRK1A (Homo sapiens, UniProt Q13627).
T2 construct: full-; Insect; N-terminal; length; GST; GST (N); purchased Reaction Biology Corp; host or cells: Insect
Description: In vitro DYRK1A kinase assay (33P-ATP, DYRKtide substrate, Reaction Biology Corp.). Format: biochemical. Particulars: 10 μM ATP, 20 μM DYRKtide, 0.3 nM enzyme. The method, then: as §4, §5, §6

Setting [8] is: DAOY cells, 100 nM SAG 48 hours, starving conditions.

Regarding `COc1ccc2c(c1)[nH]c1c(C)nccc12` [Harmine, 7-MeO-1-Me-9H-pyrido[3,4-b]-indole], the “clonal growth (sphere numbers)” value is recorded as “reduces sphere numbers” in [1] and “reduces sphere numbers; also recorded: reduced clonogenic growth” in assay [3]. For the same molecule, the “HH signaling / GLI target gene activation” value in [2] was “significant reduction”. In addition, the GLI1 protein expression result in [2] (setting [8]) is on record as “significantly inhibited”; in [4], “reduces; also recorded: reduced levels of GLI1”; in assay [5], “reduces; also recorded: reduced levels of GLI1”. Also, in assay [2] (qPCR, DAOY cells, 100 nM SAG 48 hours, starving conditions), the “PTCH1 mRNA expression” value is recorded as “significantly inhibited”. The “Beta Catenin and STAT3 expression” value in assay [4] was “essentially unaffected”. The “Beta Catenin expression” value in assay [5] is reported as “essentially unaffected”. Besides, the GLI1 expression entry in assay [6] was “reduced GLI1 expression”.
`CN(C)c1ccccc1CN1CCCN(Cc2ccccc2N(C)C)C1c1ccncc1` [GANT61, 2,2′-[[Dihydro-2-(4-pyridinyl)-1,3(2H,4H)-pyrimidinediyl]bis-(methylene)]bis[N,N-dimethylbenzenamine)]: in assay [7], the “GLI1 mRNA expression” value is “down-regulation” and the “PTCH1 mRNA expression” value is listed as “down-regulation; also recorded: sensitive”.
Regarding `FC(F)(F)c1ccc2[nH]c(Nc3ncccn3)nc2c1` [Compound P, N-(pyrimidin-2-yl)-5-(trifluoromethyl)-1H-benzo[d]imidazol-2-amine], in [2], the “HH signaling / GLI target gene activation” value is reported as “significant reduction”. In addition, the GLI1 protein expression entry in assay [2] (setting [8]) was “significantly inhibited”. Also, the IC50 is 54.8 nM against DYRK1B and 22.2 nM against DYRK1A.
Turning to `CS(=O)(=O)c1ccc(C(=O)Nc2ccc(Cl)c(-c3ccccn3)c2)c(Cl)c1` [GDC-0449, 2-chloro-N-(4-chloro-3-(pyridin-2-yl)phenyl)-4-(methylsulfonyl)benzamide], the “clonal growth (sphere numbers)” value was “not” in [1]; “not and did not affect” in assay [3]. For the same molecule, the GLI1 protein expression result in assay [2] (setting [8]) was “efficiently blocked”; in [4] it was “resistance; also recorded: inability”; in [5], “inability”. Besides, in assay [7] (Western blot), the “GLI1 expression (protein)” value is listed as “unaffected; also recorded: resistant”. The “PTCH1 mRNA expression” value in assay [7] is “resistant”.
